Among the data in patent US20160102074A1, “SUBSTITUTED AMIDE COMPOUNDS” (PFIZER INC., priority 2014, published 2016) are IC50 values, retold here.

For orientation: IC50 means the concentration that inhibits the measured activity by half.

The test system of test [1] is human PCSK9. In words: PCSK9 AlphaLISA assay, PCSK9 lowering in WT7 cells. The settings on record: WT7 cells (Huh7 stably over-expressing human PCSK9), secreted PCSK9 by AlphaLISA, overnight incubation (16-24 h), top concentration 20 μM; read-out: Cell Based PCSK9 IC50. An excerpt: PCSK9 Lowering in WT7 Cells
An in-vitro AlphaLISA assay (Perkin Elmer) was developed in order to quantitate the level of PCSK9 secreted into the cell culture media following compound treatment. To detect and measure PCSK9 protein a mouse monoclonal anti-human PCSK9 antibody was coupled to AlphaLISA acceptor beads by an external vendor (Perkin Elmer) and a second rabbit monoclonal anti-human PCSK9 antibody with an epitope distinct from that of the acceptor beads was biotinylated using the EZ link NHS-LC-LC-Biotin kit (Life Technologies #21338). Streptavidin coated-donor beads (Perkin Elmer) are also included in the assay mixture which then binds the biotinylated anti-PCSK9 antibody and in the presence of PCSK9 this donor complex and acceptor beads are brought into close proximity. Upon excitation of the donor beads at 680 nm singlet oxygen molecules are released that trigger an energy transfer cascade within the acceptor beads resolving as a single peak of light emitted at 615 nm. The ability of compound to modulate PCSK9 protein levels in conditioned media by AlphaLISA was assessed in the human hepatocellular carcinoma cell line Huh7, stably over-expressing human PCSK9. This cell line, termed WT7, was established by transfecting Huh7 cells with an in-house modified pcDNA 3.1 (+) Zeo expression vector (Life Technologies) containing the full-length human PCSK9 sequence (NCBI reference identifier, NM_174936.3, where coding sequence start annotated at position 363) and a c-terminal V5 and 6×-His tag. Following plasmid transfection the stable WT7 clone was identified and maintained under Zeocin selection. Compound screening was performed in 384-well plates where WT7 cells were plated at a density of 7500 cells per well in 20 μL of tissue culture media containing compound in an eleven point, 0.5 log dilution format at a high treatment concentration of 20 μM in a final volume of 0.5% DMSO. In additional to these test compound conditions each screening plate also included wells that contained 20 μM puromycin as a positive assay control defined as high percent effect, HPE, as well as wells containing media in 0.5% DMSO as a negative treatment control defined as zero percent effect, ZPE. After overnight compound incubation (16-24 h) the tissue culture media was collected and an aliquot from each sample was transferred to individual wells of a 384-well white Optiplate (Perkin Elmer). The coupled antibodies and donor beads were added to the assay plates in a buffer composed of 30 mM Tris pH 7.4, 0.02% Tween-20 and 0.02% Casein. Anti-PCSK9 acceptor beads (final concentration of 10 μg/mL) and anti-PCSK9 biotinylated antibody (final concentration of 3 nM) were added and incubated for 30 minutes at room temperature followed by the addition of the streptavidin donor beads (final concentration 40 μg/mL) for an additional 60 minutes. Additionally a standard curve was generated where AlphaLISA reagents were incubated in wells spiked with recombinant human PCSK9 diluted in tissue culture media from 5000 ng/mL to 0.6 ng/mL. Following incubation with AlphaLISA reagents plates were read on an EnVision (Perkin Elmer) plate reader at an excitation wavelength of […] and emission/detection wavelength of […]. To determine compound IC50 the data for HPEand ZPEcontrol wells were first analyzed and the mean, standard deviation and Z prime calculated for each plate. The test compound data were converted into percent effect, using the ZPE and HPE controls as 0% and 100% activity, respectively. The equation used for converting each well reading into percent effect was:
IC50 was then calculated and reported as the midpoint in the percent effect curve in molar units and the values are reported under the Cell Based PCSK9 IC50 (μM) column header within Table 2 Biological Data. […]
Background: In Alpha technology, singlet oxygen from a donor bead excites a nearby acceptor bead.

The subject of test [2] is human PCSK9. In words: Cell Free PCSK9 Assay (PCSK9-luciferase mRNA translation in HeLa lysate). Format: biochemical. The settings on record: PCSK9-luciferase RNA, 30° C. for 45 minutes, top concentration 100 μM. The procedure:
As defined herein inhibition of translation of PCSK9 mRNA to PCSK9 protein is determined by the “Cell Free PCSK9 Assay” provided herein in the specification. This “Cell Free PCSK9 Assay” is specific to the production of PCSK9 protein from PCSK9 mRNA and therefore detects inhibitors of this translational process rather than other mechanisms by which PCSK9 protein may be reduced.
In order to eliminate the permeability barrier inherent to the WT7 cell-based assays a cell-free system was also established to assess compound activitiy. A sequence containing the full length human PCSK9 (NCBI reference identifier, NM_174936.3, where coding sequence start annotated at position 363) along with 84 additional 3′ nucleotides, comprising a V5 tag and polylinker followed by an in frame modified firefly luciferase reporter (corresponding to nucleotide positions 283-1929 of pGL3, GenBank reference identifier JN542721.1) was cloned into the pT7CFE1 expression vector (ThermoScientific). The construct was then in-vitro transcribed using the MEGAscript T7 Kit (Life Technologies) and RNA subsequently purified incorporating the MEGAclear Kit (Life Technologies) according to manufacturer's protocols. HeLa cell lysates were prepared following the protocols described by Mikami (reference is Cell-Free Protein Synthesis Systems with Extracts from Cultured Human Cells, S. Mikami, T. Kobayashi and H. Imataka; from Methods in Molecular Biology, vol. 607, pages 43-52, Y. Endo et al. (eds.), Humana Press, 2010) with the following modifications. Cells were grown in a 20 L volume of CD293 medium (Gibco 11765-054) with Glutamax increased to 4 mM, penicillin at 100 U/mL and other additions as previously described by Mikami. Growth was in a 50 L wavebag at a rocker speed of 25 rpm and angle 6.1 with 5% CO2 and 0.2 LPM flow rate with cells harvested at a density of 2-2.5e6/mL. Lysates additionally contained 1 tablet of Roche cOmplete-EDTA protease inhibitors per 50 mL with tris(2-carboxyethyl)phosphine (Biovectra) substituted for dithiothreitol, and were clarified by an additional final centrifugation at 10,000 rpm in a Sorvall SS34 rotor at 4° C. for 10 minutes. Compound screening was performed in 384-well plates in an eleven point, 0.5 log dilution format at a top test compound concentration of 100 μM in a final volume of 0.5% DMSO. In additional to these test compound conditions each screening plate also included wells that contained 100 μM of compound example 16 (as depicted in WO2014170786; N-(3-chloropyridin-2-yl)-N-[(3R)-piperidin-3-yl]-4-(3H-[1,2,3]triazolo[4,5-b]pyridin-3-yl)benzamide) as a positive assay control defined as high percent effect, HPE, as well as wells containing media in 0.5% DMSO as a negative treatment control defined as zero percent effect, ZPE. Compounds were incubated at 30° C. for 45 minutes in a solution containing 0.1 μg of purified, in-vitro transcribed RNA together with the cell-free reaction mixture (consisting of 1.6 mM Mg and 112 mM K salts, 4.6 mM tris(2-carboxyethyl)phosphine (Biovectra), 5.0 μL HeLa lysate, 0.2 μL RNAsin (Promega) and 1.0 μL energy mix (containing 1.25 mM ATP (Sigma), 0.12 mM GTP (Sigma), 20 mM creatine phosphate (Santa Cruz), 60 μg/mL creatine phosphokinase (Sigma), 90 μg/mL tRNA (Sigma) and the 20 amino acids (Life Technologies) at final concentrations described by Mikami) and brought up in water to a final volume of 10 μL in water. Upon assay completion 1 μL from each reaction solution was removed and transferred to a second 384-well Optiplate (Perkin Elmer) containing 24 μL of SteadyGlo (Promega) and signal intensity was measured on the Envision (Perkin Elmer) using the enhanced luminescence protocol. To determine compound IC50 the data for HPE and ZPE control wells were first analyzed and the mean, standard deviation and Z prime calculated for each plate. The test compound data were converted into percent effect, using the ZPE and HPE controls as 0% and 100% activity, respectively, applying Equation 1 above. […]

As for `Cc1cccnc1N(C(=O)c1ccc(-c2cnn(C)c2-c2nn[nH]n2)cn1)[C@@H]1CCCNC1` [Example 1, N-(3-methylpyridin-2-yl)-5-[1-methyl-5-(2H-tetrazol-5-yl)-1H-pyrazol-4-yl]-N-[(3R)-piperidin-3-yl]pyridine-2-carboxamide], the results for the IC50 in test [1] and in test [2] were more than 20 µM and 5.8 µM, respectively.
Taken in the same sequence, the figures for `Cn1ncc(-c2ccc(C(=O)N(c3ncccc3Cl)[C@@H]3CCCNC3)nc2)c1-c1nn[nH]n1` [Example 2, N-(3-chloropyridin-2-yl)-5-[1-methyl-5-(2H-tetrazol-5-yl)-1H-pyrazol-4-yl]-N-[(3R)-piperidin-3-yl]pyridine-2-carboxamide] were more than 20 µM and 10.5 µM.
The matching figures for `Cc1cccnc1N(C(=O)c1ccc(-c2cnn(C)c2-c2nn[nH]n2)c(F)c1)[C@@H]1CCCNC1` [Example 4, N-(3-methylpyridin-2-yl)-3-fluoro-4-[1-methyl-5-(2H-tetrazol-5-yl)-1H-pyrazol-4-yl]-N-[(3R)-piperidin-3-yl]benzamide]: more than 20 µM and 15.3 µM.
Regarding `CCOC(=O)O[C@H](C)n1nnnc1-c1c(-c2ccc(C(=O)N(c3ncccc3Cl)[C@@H]3CCCNC3)cc2)cnn1C` [Example 12, ethyl (R)-1-{5-[1-methyl-4-(4-{(3-chloropyridin-2-yl)[(3R)-piperidin-3-yl]carbamoyl}phenyl)-1H-pyrazol-5-yl]-1H-tetrazol-1-yl}ethyl carbonate], the half-maximal inhibitory concentration (IC50) is 17.3 µM in test [1] and 15.4 µM in test [2].
